Measurements reported in patent publication US12269902B2, “Peptide compounds and peptide conjugates for the treatment of cancer through receptor-mediated chemotherapy” (TRANSFERT PLUS, S.E.C., priority 2015, dated 2025).
Non-standard residues stand in square brackets, D forms with d. Residues, ends and D or L forms follow the SMILES beside them. *: point of attachment. X3 = COc1cccc2c1C(=O)c1c(O)c3c(c(O)c1C2=O)C[C@@](O)(C(=O)COC(=O)CC(C)(C)CC(=O)*)C[C@@H]3O[C@H]1C[C@H](N)[C@H](O)[C@H](C)O1; X2 = COc1cc(/C=C/C(=O)CC(=O)/C=C/c2ccc(OC(=O)CC(C)(C)CC(=O)*)c(OC)c2)ccc1O; Nle = CCCC[C@H](N)C(=O)O

Legend:
[1] = system: SKOV3 ovarian cancer cells; assay: SKOV3 ovarian subcutaneous tumors (KBB106); settings: KBB106 18 mg/kg/week
Procedure: 26A. Mice were implanted in the flank with SKOV3 ovarian cancer cells. When tumors reached a volume of about 150 mm^3, mice were treated with KBB106 (18 mg/kg/week) as indicated by the arrows. […] 26B. Body weight of mice was monitored during the treatments.
(§1) The effect of the conjugated and unconjugated Doxorubicin was also evaluated on ovarian subcutaneous tumors. Mice were implanted in the with ES-2 ovarian cancer cells. Tumor growth was measured using a caliper. When tumors reached a tumor volume of about 150 mm^3, mice were treated with Doxorubicin or Katana-Doxorubicin conjugate KBB106 at an equivalent dose of Doxorubicin (6 mg/kg/week).

[2] = system: ES-2 ovarian cancer cells; assay: ES-2 ovarian subcutaneous tumors (Doxorubicin, KBB106); assay type: in vivo, mice; settings: Day 14 post-treatment; equivalent dose of Doxorubicin 6 mg/kg/week
Procedure: 25A. Mice were implanted in the flank with ES-2 ovarian cancer cells. Tumor growth was measured using a caliper. When tumors reached a tumor volume of about 150 mm^3, mice were treated with Doxorubicin or KBB106 at an equivalent dose of Doxorubicin (6 mg/kg/week). 25B. […] 25C.
as §1

sortilin = target: T1, sortilin (Homo sapiens, UniProt Q99523); assay: Uptake of KBB106 in ovarian cancer cells with reduced sortilin expression; assay type: cell-based; settings: ovarian cancer cells transfected with sortilin siRNA
T1 construct: Ovarian cancer cells were transfected with sortilin siRNA (siSortilin) for 24 hrs and then incubated with KBB106; endogenous in cells
T1 sequence (Q99523 78-831): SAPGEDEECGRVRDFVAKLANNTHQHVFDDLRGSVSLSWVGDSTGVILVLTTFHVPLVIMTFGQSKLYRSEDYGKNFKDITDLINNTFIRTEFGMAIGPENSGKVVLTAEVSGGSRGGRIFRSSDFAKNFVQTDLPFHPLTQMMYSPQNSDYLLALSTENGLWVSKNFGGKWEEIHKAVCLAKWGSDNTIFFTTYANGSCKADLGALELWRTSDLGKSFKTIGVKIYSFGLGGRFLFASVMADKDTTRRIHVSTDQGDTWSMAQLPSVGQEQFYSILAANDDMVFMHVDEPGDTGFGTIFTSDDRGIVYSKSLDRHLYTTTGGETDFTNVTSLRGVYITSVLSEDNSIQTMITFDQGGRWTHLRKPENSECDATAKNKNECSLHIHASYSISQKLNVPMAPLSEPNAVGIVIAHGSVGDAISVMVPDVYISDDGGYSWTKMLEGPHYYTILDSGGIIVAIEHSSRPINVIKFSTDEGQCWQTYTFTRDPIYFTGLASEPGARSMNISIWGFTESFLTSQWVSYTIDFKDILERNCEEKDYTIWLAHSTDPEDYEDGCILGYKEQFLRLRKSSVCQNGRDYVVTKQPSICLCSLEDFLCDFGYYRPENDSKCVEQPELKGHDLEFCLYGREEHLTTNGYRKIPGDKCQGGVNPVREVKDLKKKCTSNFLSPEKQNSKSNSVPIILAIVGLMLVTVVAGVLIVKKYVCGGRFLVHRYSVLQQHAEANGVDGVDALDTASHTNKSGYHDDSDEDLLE
Procedure: A. Ovarian cancer cells were transfected with sortilin siRNA (siSortilin) for 24 hrs and then incubated with KBB106. Accumulation of KBB106 was monitored by the released of fluorescent Doxorubicin as a function of time. B. Ovarian cancer cells were incubated with KBB106 in the presence or absence of sortilin ligand (Katana peptide, progranulin). KBB106 accumulation was estimated by the released of fluorescent Doxorubicin.
The uptake of the Katana conjugate is increased in cells expressing the sortilin receptor.

[3] = system: SK-MEL-28 skin cancer cells; assay: [3H]-Thymidine incorporation cell proliferation assay, SK-MEL-28; assay type: cell-based
Procedure: (§2) The effect of the Docetaxel-Katana peptide conjugate on various cell line proliferations was evaluated and compared to unconjugated Docetaxel (Table 4). IC50 values obtained for the Docetaxel-Katana peptide conjugate were very similar to those of Docetaxel in the cancer cells tested.
(§3) The phytochemical Curcumin, unconjugated and conjugated, was also tested on cancer cell proliferation (FIG. 28). Breast cancer cells (MDA-MB231) were incubated with increasing concentrations of KBC106 or curcumin. After 72 hrs, thymidine incorporation assay was performed to assess the anti-proliferative properties of both molecules. IC50 values were extracted from the anti-proliferative curves. […] Proliferation assay was also performed using different types of cancer cells (ovarian, breast, skin and colorectal cancer cells). IC50 values were calculated from the anti-proliferation curves. In all cases, the Curcumin conjugate (KBC106) had stronger anti-proliferative activity (9-100 fold) than unconjugated Curcumin, as shown in Table 6 below.
(§4) Cancer cells were cultured in 96-well white plates (Perkin Elmer). They were synchronized for 24 hours in serum-deprived medium. After incubation of cells with unconjugated drugs (docetaxel, cabazitaxel, doxorubicin) or with drug-Katana peptide conjugates for 2 or 3 days, all media was aspirated and cells were pulse-labeled for 4 hours at 37° C./[…]/5% CO2 with media containing 2.5 μCi/mL [methyl-3H] thymidine (Perkin Elmer). Cells were washed, fixed, and dried before addition of scintillation fluid (Microscint 0, Perkin Elmer). After 24 hours, cell-associated tritium was quantified by counting on a plate reader (TopCount, Perkin Elmer). Incorporated [3H] thymidine was plotted for each drug concentration.

[4] = system: MDA-MB-231 breast cancer cells; assay: cells
Procedure: Breast cancer cells (MDA-MB231) were incubated with increasing concentrations of KBC106 or curcumin. After 72 hrs, thymidine incorporation assay was performed to assess the anti-proliferative properties of both molecules. IC50 values were extracted from the anti-proliferative curves.
as §3, with “curves.” for “curves. In all cases, the Curcumin conjugate (KBC106) had stronger anti-proliferative activity (9-100 fold) than unconjugated Curcumin, as shown in Table 6 below.”
as §4

A-375 skin cancer cells = assay: [3H]-Thymidine incorporation cell proliferation assay, A-375; assay type: cell-based
Procedure: as §2, §3, §4

[5] = system: ES-2 ovarian cancer cells; assay: [3H]-Thymidine incorporation cell proliferation assay, ES-2; assay type: cell-based; settings: ES-2 (Ovary)
Procedure: as §2, §3, §4

[6] = system: HCC-1569 breast cancer cells; assay: cells; assay type: cell-based; settings: HCC-1569 (HER2+; Herceptin resistant); Table 6
Procedure: as §3, §4

[7] = system: HCC-1954 breast cancer cells; assay: cells; assay type: cell-based; settings: HCC-1954 (HER2+; Lapatinib resistant); Table 6
Procedure: as §3, §4

[8] = system: HT-29 colorectal cancer cells; assay: cells; assay type: cell-based; settings: Table 6
Procedure: as §3, §4

[9] = Homo sapiens, SK-MEL-28 (Skin), Table 4, 2 or 3 days
[10] = Homo sapiens, A-375 (Skin), Table 4, 2 or 3 days

| IC50 [3, 9] [nM] | IC50 ([4]; Homo sapiens, MDA-MB-231) [nM] | IC50 (A-375 skin cancer cells; [10]) [nM] | IC50 ([5]; Table 4, 2 or 3 days) [nM] | SMILES | tumor volume decrease compared to the vehicle group [2] [%] | other results |
| --- | --- | --- | --- | --- | --- | --- |
|  |  |  |  | CCCC[C@H](NC(=O)[C@H](CC(N)=O)NC(=O)[C@H](CCCNC(=N)N)NC(=O)[C@@H](NC(=O)CNC(=O)[C@H](C)NC(=O)[C@H](CCCCNC(=O)CC(C)(C)CC(=O)OCC(=O)[C@]1(O)Cc2c(O)c3c(c(O)c2[C@@H](O[C@H]2C[C@H](N)[C@H](O)[C@H](C)O2)C1)C(=O)c1c(OC)cccc1C3=O)NC(=O)[C@H](C)NC(=O)[C@H](CCCNC(=N)N)NC(=O)[C@@H](NC(=O)CNC(C)=O)C(C)C)C(C)C)C(=O)N[C@@H](Cc1ccccc1)C(=O)N[C@@H](CCCCNC(=O)CC(C)(C)CC(=O)OCC(=O)[C@]1(O)Cc2c(O)c3c(c(O)c2[C@@H](O[C@H]2C[C@H](N)[C@H](O)[C@H](C)O2)C1)C(=O)c1c(OC)cccc1C3=O)C(=O)N[C@@H](CO)C(=O)N[C@@H](CCC(=O)O)C(=O)N[C@@H](CO)C(=O)N[C@@H](Cc1ccc(O)cc1)C(=O)O [KBB-106, Acetyl-GVRAK(doxorubicin)AGVRN(Nle)FK(doxorubicin)SESY] (Ac-GVRAK(X3)AGVRN[Nle]FK(X3)SESY-OH; C-terminus assumed) | 97 | effect on body weight [1]: little effect on the body weight; progression of SKOV3 xenograft tumors [1]: significantly decreased compared to the control group; uptake in cells where sortilin expression was reduced (sortilin): reduced |
|  |  |  |  | CCCC[C@H](NC(=O)[C@H](CC(N)=O)NC(=O)[C@H](CCCNC(=N)N)NC(=O)[C@@H](NC(=O)CNC(=O)[C@H](C)NC(=O)[C@H](CCCCNC(=O)CC(C)(C)CC(=O)Oc1ccc(/C=C/C(=O)CC(=O)/C=C/c2ccc(O)c(OC)c2)cc1OC)NC(=O)[C@H](C)NC(=O)[C@H](CCCNC(=N)N)NC(=O)[C@@H](NC(=O)CNC(C)=O)C(C)C)C(C)C)C(=O)N[C@@H](Cc1ccccc1)C(=O)N[C@@H](CCCCNC(=O)CC(C)(C)CC(=O)Oc1ccc(/C=C/C(=O)CC(=O)/C=C/c2ccc(O)c(OC)c2)cc1OC)C(=O)N[C@@H](CO)C(=O)N[C@@H](CCC(=O)O)C(=O)N[C@@H](CO)C(=O)N[C@@H](Cc1ccc(O)cc1)C(=O)O [KBC106, Acetyl-GVRAK(curcumin)AGVRN(Nle)FK(curcumin)SESY] (Ac-GVRAK(X2)AGVRN[Nle]FK(X2)SESY-OH; C-terminus assumed) |  | IC50 ([3]; SK-MEL-28, Table 6): 243 nM; IC50 ([4]; MDA-MB231 (Triple negative), Table 6, 72 hrs): 135 nM; IC50 (A-375 skin cancer cells; A-375, Table 6): 326 nM; IC50 ([5]; Table 6): 1520 nM; IC50 [6]: 1010 nM; IC50 [7]: 1290 nM; IC50 [8]: 3600 nM |
| 0.12 | 0.44 | 0.34 | 0.66 | CO[C@H]1C(=O)[C@]2(C)[C@@H](OC)C[C@H]3OC[C@@]3(OC(C)=O)[C@H]2[C@H](OC(=O)c2ccccc2)[C@]2(O)C[C@H](OC(=O)[C@H](O)[C@@H](NC(=O)OC(C)(C)C)c3ccccc3)C(C)=C1C2(C)C [Cabazitaxel, cabazitaxel] |  |  |
| 79.3 | 9.7 | 11.8 | 73.5 | COc1cccc2c1C(=O)c1c(O)c3c(c(O)c1C2=O)C[C@@](O)(C(=O)CO)C[C@@H]3O[C@H]1C[C@H](N)[C@H](O)[C@H](C)O1 [Doxorubicin, doxorubicin] | 43 |  |
